Source: article PMC12948223, “HSP70 Interactome‐Mediated Proteolysis Targeting Chimera (HSP70‐PROTAC) for Ferroptosis‐Driven Cancer Treatment” (Advanced Science, 2025)

Key:
human Hsc70 = target: T1, human Hsc70 (Homo sapiens, UniProt P11142); assay: SPR binding to immobilized Hsc70 (binary); details: immobilized Hsc70, 25 °C
T1 construct: purchased MedChemExpress HY-P73915A
Experimental: (§1) The SPR data was generated by our Shared Instrumentation Core Facility at the Hangzhou Institute of Medicine (HIM), Chinese Academy of Sciences. The in vitro binding affinity of compound GDAz‐3 to recombinant proteins (Hsc70, MedChemExpress, #HY‐P73915A; GPX4, Cayman, Item No. 26 906) was evaluated using a Biacore 8K system (Cytiva (GE)) with the method of LMW multi‐cycle kinetics/affinity. Pipelines and chips were flushed with PBS (pH 7.4) running buffer, and then, human Hsc70 was immobilized on a CM5 sensor chip. Analysis was performed at a flow rate of 30 µL min^−1 at 25 °C with the injection of incremental concentrations of compounds dissolved in buffer solution (the final concentration of DMSO was 5%). For ternary‐complex binding measurements, Hsc70 was immobilized on a CM5 sensor chip, and compound GDAz‐3 at a concentration of 1 µM was preincubated with GPX4. The binding and dissociation durations were recorded as response unit values for 120 and 120 s in succession, respectively. Finally, the data were analyzed by Biacore evaluation software with the method of LMW multi‐cycle kinetics/affinity.

GPX4 [1] = target: T2, GPX4 (Homo sapiens, UniProt P36969); assay: SPR binding to GPX4 recombinant protein
T2 construct: purchased Cayman 26 906
T2 sequence (P36969 28-197 limits assumed): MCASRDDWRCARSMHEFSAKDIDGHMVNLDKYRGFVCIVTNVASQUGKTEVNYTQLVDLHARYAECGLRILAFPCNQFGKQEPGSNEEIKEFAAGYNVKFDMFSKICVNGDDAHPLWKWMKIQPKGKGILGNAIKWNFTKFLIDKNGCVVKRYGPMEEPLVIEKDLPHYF
Experimental: as §1

[2] = Pharmacokinetic study in ICR mice; type: in vivo; details: mouse; male ICR mice, IP, 30 mg/kg, plasma
Experimental: To evaluate the in vivo pharmacokinetic (PK) profile of the GDAz‐3 and explore its therapeutic potential, a single intraperitoneal (IP) injection (30 mg kg^−1) was conducted in male ICR mice. Plasma samples were collected at predetermined time points and analyzed using LC‐MS/MS.
The tested compound GDAz‐3 was IP administered to ICR mice (male, n = 3 per time‐point). Blood samples were collected at 0.0833, 0.25, 0.5, 1, 2, 4, 8, and 24 h after IP administration (30 mg kg^−1) and then centrifuged at 6800 g for 6 min at 4 °C to obtain plasma, which were stored at −80 °C until analysis The compound concentrations in plasma were determined by liquid chromatography‐tandem mass spectrometry (API5000 LC‐MS/MS).

GPX4 mRNA = assay: Real-time qRT-PCR of GPX4 mRNA in HT1080 cells; type: cell-based, human; details: HT1080 cells, 0.1, 0.3, 1 and 3 µM, 24 h
Experimental: Real‐time qRT‐PCR was used to determine the mRNA expression level of GPX4 gene in HT1080 cells. In brief, HT1080 cells were seeded in 6‐well plates at a density of 4.5 × 10^5 cells per well and allowed to adhere overnight. Subsequently, the cells were exposed to different concentrations of the test compound GDAz‐3 for 24 h. Total RNA from the various cell samples was extracted using an RNA‐Quick Purification Kit (#RC112, Vazyme, Nanjing, China) according to the manufacturer's instructions. The concentrations of the isolated RNA samples were determined using NanoDrop. A total of 2 µg RNA was used to synthesize cDNA using Fast‐All‐in‐One RT Kit (#RT001, ES Science, Shanghai) following the manufacturer's guidelines. Real‐time PCR was performed using 2xSuper SYBR Green QPCR Master Mix (#QP002, ES Science, Shanghai) and determined using a CFX96 PCR instrument with the following cycling conditions: 95 °C for 5 min, 95 °C for 10 s, and 60 °C for 30 s, 40 cycles. The data were analyzed by Bio‐Rad CFX Manager Software version 3.1. The primers used in this experiment were as follows: […]

Fe2+ = assay: Intracellular Fe2+ in HT1080 cells; type: cell-based, human; details: HT1080 cells, 0.1, 0.5 and 1 µM, 24 h
Experimental: HT1080 cells were seeded into 10‐cm culture dishes at a density of 2 × 10⁶ cells overnight, and various concentrations of GDAz‐3 (0.1, 0.5, and 1 µM) were added. The cells were digested and collected after treatment with drugs for 24 h. The cells were detected according to the instructions of the Cell Ferrous Iron (Fe^2⁺) Fluorometric Assay Kit (E‐BC‐F101, Elabscience Biotechnology Co., Ltd.). In brief, the cells were washed twice with Reagent 1 working solution in the kit, and then Reagent 2 working solution was added (1 mL per 10⁶ cells). The cells were incubated at 37 °C in the dark for 30–60 min. The samples were centrifuged at 300 × g for 5 min, and the supernatant was discarded. The cells were washed two to three times with Reagent 1 working solution. After resuspending the cells in 0.2–0.5 mL of Reagent 1 working solution, the samples were detected using a fluorescence microplate reader (excitation wavelength: 542 nm, emission wavelength: 575 nm).

SLC7A11 = assay: Western blot of SLC7A11 in HT1080 cells; type: cell-based, human; details: 24 h
GPX4 [3] = target: T3, GPX4 (Homo sapiens, UniProt P36969); assay: Ubiquitination assay of GPX4 in HT1080 cells; type: cell-based; design: determine the changes in the endogenous levels of GPX4 by western blot assay; endogenous in cells; host or cells: HT1080 fibrosarcoma cells, including siRNA-knockdown derivatives; details: 1 µM, 12 h
T3 sequence (P36969 1-170 isoform P36969-2): T2 sequence (P36969 28-197 limits assumed)
Experimental: HT1080 cells were seeded in 15 cm culture dishes and allowed to adhere overnight. Then, the cells were treated with either 1 µM GDAz‐3 or an equivalent volume of DMSO for 12 h. Next, the proteasome inhibitor MG‐132 (5 µM) was added, and the cells were further incubated for 6 h. Once the incubation was completed, the cells were harvested and subjected to lysis using an IP lysis solution (#P0013J, Beyotime, Shanghai, China) to extract proteins. Then, the cell lysates were incubated with the GPX4 antibody (Proteintech, #67763‐1‐Ig, 1:100) overnight at 4 °C. Subsequently, protein A/G‐magnetic beads (#P2179, Beyotime, Shanghai, China) were added, and the mixture was incubated at 4 °C for 2 h on a rotator. After incubation, the beads were washed four times with immunoprecipitation buffer and then boiled in 1× loading buffer. The protein samples were then subjected to SDS‐PAGE analysis to evaluate the interactions between the target proteins. Finally, western blotting was used to detect proteins of interest in the co‐immunoprecipitation products. The ubiquitin assay was carried out under denaturing conditions.

T1 sequence (P11142 whole entry): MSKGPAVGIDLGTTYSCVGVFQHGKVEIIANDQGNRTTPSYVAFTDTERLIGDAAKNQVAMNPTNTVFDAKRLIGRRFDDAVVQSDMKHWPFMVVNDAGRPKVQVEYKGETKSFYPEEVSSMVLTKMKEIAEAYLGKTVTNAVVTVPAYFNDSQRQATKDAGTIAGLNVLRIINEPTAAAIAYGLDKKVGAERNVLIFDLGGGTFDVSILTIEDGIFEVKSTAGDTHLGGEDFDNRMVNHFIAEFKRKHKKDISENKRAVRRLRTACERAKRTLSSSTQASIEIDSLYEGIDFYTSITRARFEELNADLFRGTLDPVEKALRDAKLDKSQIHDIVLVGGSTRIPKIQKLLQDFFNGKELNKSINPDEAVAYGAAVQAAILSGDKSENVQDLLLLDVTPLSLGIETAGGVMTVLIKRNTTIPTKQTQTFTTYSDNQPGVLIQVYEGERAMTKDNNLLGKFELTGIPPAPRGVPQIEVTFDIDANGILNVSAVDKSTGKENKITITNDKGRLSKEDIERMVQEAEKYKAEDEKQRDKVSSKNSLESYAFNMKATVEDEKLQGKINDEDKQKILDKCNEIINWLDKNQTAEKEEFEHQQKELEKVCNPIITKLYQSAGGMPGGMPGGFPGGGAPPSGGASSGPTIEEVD

COc1ccc(-c2nc(-c3cc(C(F)(F)F)cc(C(F)(F)F)c3)n(Cc3ccc(C(=O)NCCOCCOCCOCCn4cc(COc5ccc(N(C(=O)CCl)C(C(=O)NCCc6ccccc6)c6cccs6)cc5Cl)nn4)cc3)c2-c2ccc(OC)cc2)cc1 (stereo not drawn) [GDAz-3, 4-((2-(3,5-bis(trifluoromethyl)phenyl)-4,5-bis(4-methoxyphenyl)-1H-imidazol-1-yl)methyl)-N-(2-(2-(2-(2-(4-((2-chloro-4-(2-chloro-N-(2-oxo-2-(phenethylamino)-1-(thiophen-2-yl)ethyl)acetamido)phenoxy)methyl)-1H-1,2,3-triazol-1-yl)ethoxy)ethoxy)ethoxy)ethyl)benzamide]
Kd (human Hsc70): 0.018 µM
Kd (GPX4 [1]): 1.17 µM
AUC(0-inf) [2]: 3140 ng·h/mL
AUC(0-t) [2]: 2450 ± 939 ng·h/mL
Cmax [2]: 201 ng/mL
MRT inf [2]: 15.5 ± 1.31 h
Tmax [2]: 4 h
half-life [2]: 10.2 h
Level of GPX4 mRNA (GPX4 mRNA): did not significantly affect
Content of Fe2+ (Fe2+): increased
Effect on SLC7A11 protein (SLC7A11): did not show a significant effect
Ubiquitination of GPX4 (GPX4 [3]): obviously increase the ubiquitination of GPX4
